Reference: US20230124862A1, “BISMUTH THIOL COMPOUNDS AND COMPOSITIONS AND METHODS OF TREATING MICROBIAL CO-INFECTIONS” (Microbion Corporation, priority 2020, published 2023)
Converted amounts (≈) assume the structure as drawn. “And” between values parts separate entries of the source, which are not always exact repeats. Equal values may be shown once. Read-outs that look alike come from different tables or passages of the source.

Key:
B. cenocepacia = test: MIC testing of CF isolates; format: cell-based, Burkholderia cenocepacia
B. cepacia = test: MIC testing of CF isolates; format: cell-based, Burkholderia cepacia; conditions: Burkholderia cepacia; strain BC17; read-out: MIC
E. coli ATCC 25922 = conditions: control strain ATCC 25922; cited from earlier work
P. aeruginosa = test: Checkerboard FIC/FICI assay; format: cell-based, Pseudomonas aeruginosa; conditions: for FICB / MICB: Amikacin in combination with BisEDT
S. aureus ATCC 29213 = conditions: control strain ATCC 29213; cited from earlier work
[1] = system: Burkholderia cepacia complex; test: Checkerboard FIC/FICI assay; format: cell-based, Burkholderia spp.; conditions: for MICB: MIC of Amikacin (Drug B) in combination with BisEDT
S. maltophilia = test: MIC testing of CF isolates; format: cell-based, Stenotrophomonas maltophilia; conditions: strain SM21
Achromobacter spp. = test: MIC testing of CF isolates; format: cell-based; conditions: strain AX4, A. xylosoxidans; read-out: MIC
B. multivorans = test: MIC testing of CF isolates; format: cell-based, Burkholderia multivorans; conditions: Burkholderia multivorans; strain BC5b; read-out: MIC
Haemophilus influenzae [2] = conditions: H. influenzae MMX 1224 (ATCC 49247), cited from earlier work
Haemophilus influenzae [3] = test: Broth microdilution MIC, Haemophilus influenzae clinical isolates; format: cell-based
[4] = system: Gram-negative organisms (P. aeruginosa, E. coli, A. baumannii, H. influenzae); test: Broth microdilution MIC with pulmonary surfactant (Survanta); format: cell-based
[5] = system: Gram-negative organisms (P. aeruginosa, E. coli, A. baumannii, H. influenzae); conditions: P. aeruginosa ATCC 27853; cited from earlier work
[6] = P. aeruginosa 6322, one value per panel row D-G
[7] = P. aeruginosa 6977, by checkerboard
[8] = P. aeruginosa 7745, by checkerboard
[9] = H. influenzae MMX 1224 (ATCC 49247)

NCC[C@H](O)C(=O)N[C@@H]1C[C@H](N)[C@@H](O[C@H]2O[C@H](CN)[C@@H](O)[C@H](O)[C@H]2O)[C@H](O)[C@H]1O[C@H]1O[C@H](CO)[C@@H](O)[C@H](N)[C@H]1O [Amikacin, reference compound]
MIC (B. cenocepacia; Burkholderia cenocepacia, strain BC15, read-out: MIC): > 64 µg/mL
MIC (B. cenocepacia; strain AU197): >64 µg/mL
MIC (B. cepacia): > 64 µg/mL
Expected MIC: goal (acceptable range) (E. coli ATCC 25922): 1 to 2 µg/mL
MICB (P. aeruginosa; [6]): 128 µg/mL
MICB (P. aeruginosa; [8]): 4 µg/mL
MIC (P. aeruginosa; Pseudomonas aeruginosa, P. aeruginosa 6977, Amikacin alone (checkerboard with BisEDT), read-out: Drug B MIC): 16 µg/mL
Expected MIC: goal (acceptable range) (S. aureus ATCC 29213): 2 µg/mL
MIC (S. maltophilia): 64 µg/mL (≈ 109 µM)
MIC (Achromobacter spp.): > 64 µg/mL
MIC (B. multivorans): > 64 µg/mL

CC1(C)S[C@@H]2[C@H](NC(=O)[C@H](N)c3ccccc3)C(=O)N2[C@H]1C(=O)O [AMP]
CLSI Quality Control Range (MIC) (Haemophilus influenzae [2]; in µg/mL): 2-8
MIC (Haemophilus influenzae [3]; H. influenzae MMX 0797, BLNAR): 4 µg/mL (≈ 11.4 µM)
MIC (Haemophilus influenzae [3]; [9]): 2 µg/mL (≈ 5.72 µM)
MIC (Haemophilus influenzae [3]; H. influenzae MMX 1302): 0.25 µg/mL (≈ 0.715 µM)
MIC (Haemophilus influenzae [3]; H. influenzae MMX 1304): 0.25 µg/mL (≈ 0.715 µM)
MIC (Haemophilus influenzae [3]; H. influenzae MMX 1740): 4 µg/mL (≈ 11.4 µM)
MIC (Haemophilus influenzae [3]; H. influenzae MMX 1741): 4 µg/mL (≈ 11.4 µM)
MIC (Haemophilus influenzae [3]; H. influenzae MMX 2795, BLNAR): 4 µg/mL (≈ 11.4 µM)
MIC (Haemophilus influenzae [3]; H. influenzae MMX 2796, BLNAR): 2 µg/mL (≈ 5.72 µM)
MIC (Haemophilus influenzae [3]; H. influenzae MMX 2798, BLNAR): 4 µg/mL (≈ 11.4 µM)
MIC (Haemophilus influenzae [3]; H. influenzae MMX 2799, BLNAR): 4 µg/mL (≈ 11.4 µM)
MIC (Haemophilus influenzae [3]; H. influenzae MMX 5458): 0.12 µg/mL (≈ 0.343 µM)
MIC (Haemophilus influenzae [3]; H. influenzae MMX 5461): 0.5 µg/mL (≈ 1.43 µM)
MIC (Haemophilus influenzae [3]; H. influenzae MMX 5469): 4 µg/mL (≈ 11.4 µM)
MIC (Haemophilus influenzae [3]; H. influenzae MMX 5494): 0.12 µg/mL (≈ 0.343 µM)
MIC (Haemophilus influenzae [3]; H. influenzae MMX 5495): 0.25 µg/mL (≈ 0.715 µM)
MIC (Haemophilus influenzae [3]; H. influenzae MMX 5499): 0.25 µg/mL (≈ 0.715 µM)

C[C@@H](O)[C@H]1C(=O)N2C(C(=O)O)=C(SCCN=CN)C[C@H]12 [Imspenem]
MIC ([4]; A. baumanuii CSC 0288, 0 percent Survanta): 16 µg/mL (≈ 53.4 µM)
MIC ([4]; A. baumanuii CSC 0288, 1 percent Survanta): 16 µg/mL (≈ 53.4 µM)
MIC ([4]; A. baumanuii CSC 0288, 2.5 percent Survanta): 16 µg/mL (≈ 53.4 µM)
MIC ([4]; A. baumanuii CSC 0288, 5 percent Survanta): 16 µg/mL (≈ 53.4 µM)
MIC ([4]; B. cepucia MMX9040, 0 percent Survanta): 8 µg/mL (≈ 26.7 µM)
MIC ([4]; B. cepucia MMX9040, 1 percent Survanta): 8 µg/mL (≈ 26.7 µM)
MIC ([4]; B. cepucia MMX9040, 2.5 percent Survanta): 8 µg/mL (≈ 26.7 µM)
MIC ([4]; B. cepucia MMX9040, 5 percent Survanta): 8 µg/mL (≈ 26.7 µM)
MIC ([4]; B. cepucia MMX9040, 10 percent Survanta): 8 µg/mL (≈ 26.7 µM)
MIC ([4]; H. Influenzae ATCC 49247, 0 percent Survanta): 0.5 µg/mL (≈ 1.67 µM)
MIC ([4]; H. Influenzae ATCC 49247, 1 percent Survanta): 0.5 µg/mL (≈ 1.67 µM)
MIC ([4]; H. Influenzae ATCC 49247, 2.5 percent Survanta): 0.5 µg/mL (≈ 1.67 µM)
MIC ([4]; H. Influenzae MMX 2795, 0 percent Survanta): 1 µg/mL (≈ 3.34 µM)
MIC ([4]; P. aeruginosa ATCC 27853, 0 percent Survanta): 2 µg/mL (≈ 6.68 µM)
MIC ([4]; P. aeruginosa ATCC 27853, 1 percent Survanta): 2 µg/mL (≈ 6.68 µM)
MIC ([4]; P. aeruginosa ATCC 27853, 2.5 percent Survanta): 2 µg/mL (≈ 6.68 µM)
MIC ([4]; P. aeruginosa ATCC 27853, 5 percent Survanta): 2 µg/mL (≈ 6.68 µM)
MIC ([4]; P. aeruginosa ATCC 27853, 10 percent Survanta): 2 µg/mL (≈ 6.68 µM)
MIC ([4]; P. aeruginosa CDC 0444, 0 percent Survanta): >16 µg/mL
MIC ([4]; P. aeruginosa CDC 0444, 1 percent Survanta): >16 µg/mL
MIC ([4]; P. aeruginosa CDC 0444, 2.5 percent Survanta): >16 µg/mL
MIC ([4]; P. aeruginosa CDC 0444, 5 percent Survanta): >16 µg/mL
MIC ([4]; P. aeruginosa CDC 0444, 10 percent Survanta): >16 µg/mL
CLSI acceptable MIC QC range [5]: 1 to 4 µg/mL

C[C@H]1COc2c(N3CCN(C)CC3)c(F)cc3c(=O)c(C(=O)O)cn1c23 [LEV]
CLSI Quality Control Range (MIC) (Haemophilus influenzae [2]): (0.008-0.03)
MIC (Haemophilus influenzae [3]; H. influenzae MMX 0797, BLNAR): 0.015 µg/mL (≈ 0.0415 µM)
MIC (Haemophilus influenzae [3]; [9]): 0.015 µg/mL (≈ 0.0415 µM)
MIC (Haemophilus influenzae [3]; H. influenzae MMX 1302): 0.015 µg/mL (≈ 0.0415 µM)
MIC (Haemophilus influenzae [3]; H. influenzae MMX 1304): 0.015 µg/mL (≈ 0.0415 µM)
MIC (Haemophilus influenzae [3]; H. influenzae MMX 1740): 0.015 µg/mL (≈ 0.0415 µM)
MIC (Haemophilus influenzae [3]; H. influenzae MMX 1741): 0.015 µg/mL (≈ 0.0415 µM)
MIC (Haemophilus influenzae [3]; H. influenzae MMX 2795, BLNAR): 0.015 µg/mL (≈ 0.0415 µM)
MIC (Haemophilus influenzae [3]; H. influenzae MMX 2796, BLNAR): 0.015 µg/mL (≈ 0.0415 µM)
MIC (Haemophilus influenzae [3]; H. influenzae MMX 2798, BLNAR): 0.015 µg/mL (≈ 0.0415 µM)
MIC (Haemophilus influenzae [3]; H. influenzae MMX 2799, BLNAR): 0.015 µg/mL (≈ 0.0415 µM)
MIC (Haemophilus influenzae [3]; H. influenzae MMX 5458): 0.015 µg/mL (≈ 0.0415 µM)
MIC (Haemophilus influenzae [3]; H. influenzae MMX 5461): 0.03 µg/mL (≈ 0.083 µM)
MIC (Haemophilus influenzae [3]; H. influenzae MMX 5469): 0.015 µg/mL (≈ 0.0415 µM)
MIC (Haemophilus influenzae [3]; H. influenzae MMX 5494): 0.015 µg/mL (≈ 0.0415 µM)
MIC (Haemophilus influenzae [3]; H. influenzae MMX 5495): 0.015 µg/mL (≈ 0.0415 µM)
MIC (Haemophilus influenzae [3]; H. influenzae MMX 5499): 0.015 µg/mL (≈ 0.0415 µM)
